Assay results published in US11680056B2, “MK2 inhibitors and uses thereof” (Xinthera, Inc., priority 2021, dated 2023).
Read-outs that look alike come from different tables or passages of the source.

Tests used:
[1] = molecular target: p38a/PRAK (Homo sapiens (Human), UniProt Q16539); test: p38a/PRAK biochemical assay: activation of PRAK by p38, FITC-HSP27 peptide phosphorylation (IMAP FP); details: 10-point 1:3 dilution, top dose 300 μM; 60 pM active p38a, 1 nM inactive PRAK, 10 μM ATP, 2 h incubation; read-out: p38a/PRAK Enzyme pIC50 (converted)
Method: (§1) Expression vectors of the recombinant MK2 and PRAK kinases were constructed by cloning of the codon optimized gene sequences of MK2 (Uniprot ID P49137, amino acid fragment F46-H400), or PRAK (Uniprot ID Q81W41, amino acid fragment M1-Q471) into pGEX-4T1 (GE) for over expression of these kinases with N-terminal GST-tag. Protein expression was carried out in E. coli BL21 by growing the hosts in TB medium, induction of protein expression with 0.5 mM IPTG at approximate 0.8 OD600, and incubation of the cultures at 18° C. for 14-20 hours afterwards. The harvested cells were resuspended in […] of Lysis buffer (50 mM Tris-HCl, pH 8.0, 500 mM NaCl, 1 mM DTT, 5% glycerol, and 1 mM PMSF) per gram of wet cell mass and homogenized at 4° C. in a microfluidizer (ATS, Suzhou, China) at 14,000 psi pressure, 3 passes. The cell lysates were clarified by centrifugation and the supernatants containing the GST-fusion proteins were purified by affinity chromatography using GSH-Sepharose (GE) gravity flow columns pre-equilibrated in Buffer A (50 mM Tris-HCl, pH 8.0, 500 mM NaCl, 1 mM DTT, and 5% glycerol). After thorough washing of the columns with Buffer A, the bound GST-proteins were eluted by Buffer B (50 mM Tris, pH 8.0, 500 mM NaCl, 1 mM DTT, 5% glycerol, 10 mM glutathione), followed by size-exclusion purification on Superdex 200 column equilibrated in Buffer A. The purified proteins were concentrated to approximately 1 mg/ml and stored at −80° C.
(§2) This study evaluates the inhibitory potency of invention compound on p38/MK2 pathway vs p38/PRAK pathway. More specially the compound concentration (IC50) was determined that inhibited half of the maximal activation of MK2 or PRAK by p38. MK2 activation study was set up without or with a serial of 10-point 1:3 dilution of invention compound at top dose of 1 or 1 μM, and PRAK activation study was set up without or with a serial of 10-point 1:3 dilution of invention compound at top dose of 300 μM. The MK2 and PRAK activity were determined by the phosphorylation level of HSP27 peptide conjugated with FITC.
(§3) After 2 h incubation of the reaction mixture with various concentration of invention compound (200 nL), 60 μL 1×IMAP solution Mixture (Molecular Devices, Cat R8127) was added to the reaction mixture and incubated for another half hour. The signal was then read by Synergy™ Neo2 Multi-Mode Microplate Reader with filter setting (Ex/Em=485 nm/FITC FP-P pol 528 nm & FITC FP-S pol 528 nm)
(§4) The signal was then normalized to vehicle control and fitted in Xfit to generate IC50. The selectivity of MK2 over PRAK was calculated by the formular Selectivity=IC50 of PRAK/IC50 of MK2.

[2] = molecular target: p38a/MK2 (Homo sapiens (Human), UniProt P49137+Q16539); test: p38a/MK2 biochemical assay: activation of MK2 by p38, FITC-HSP27 peptide phosphorylation (IMAP FP); details: 10-point 1:3 dilution, 60 pM active p38a, 1 nM inactive MK2, 10 μM ATP, 2 h incubation
Method: as §1
as §2, with “1:[…],” for “1:3 dilution of invention compound at top dose of 1 or 1 μM,”
as §3, §4

[3] = top dose 10 μM, read-out: p38a/MK2 (10 μM) Enzyme pIC50 (converted)

Sequence of p38a/PRAK (Q16539 whole entry, the tested form may be a part): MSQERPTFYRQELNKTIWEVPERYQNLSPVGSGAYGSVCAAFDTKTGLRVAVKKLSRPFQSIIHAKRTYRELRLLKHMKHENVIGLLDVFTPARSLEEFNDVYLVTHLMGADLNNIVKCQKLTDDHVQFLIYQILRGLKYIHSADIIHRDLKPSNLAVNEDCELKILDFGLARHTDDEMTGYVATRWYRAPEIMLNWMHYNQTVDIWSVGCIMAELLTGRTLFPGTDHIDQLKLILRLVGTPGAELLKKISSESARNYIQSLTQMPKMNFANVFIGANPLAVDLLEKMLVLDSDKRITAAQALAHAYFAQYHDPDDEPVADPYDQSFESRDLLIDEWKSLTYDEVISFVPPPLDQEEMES
Sequence of p38a/MK2 (P49137 46-400): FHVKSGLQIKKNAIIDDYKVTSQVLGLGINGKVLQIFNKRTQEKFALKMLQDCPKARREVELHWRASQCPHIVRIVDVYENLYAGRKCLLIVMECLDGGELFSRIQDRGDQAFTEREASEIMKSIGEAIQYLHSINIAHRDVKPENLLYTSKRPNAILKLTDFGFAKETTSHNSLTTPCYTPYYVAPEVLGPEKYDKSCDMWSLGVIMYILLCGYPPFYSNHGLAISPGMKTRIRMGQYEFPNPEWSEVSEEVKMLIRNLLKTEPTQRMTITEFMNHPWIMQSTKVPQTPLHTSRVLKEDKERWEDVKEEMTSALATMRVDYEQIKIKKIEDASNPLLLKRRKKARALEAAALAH
Sequence of p38a/MK2 (Q16539 whole entry): as the sequence (Q16539 whole entry, the tested form may be a part) above

IC50 [2, 3] [µM] | IC50 ([2]; top dose 1 μM, read-out: p38a/MK2 (1 μM) Enzyme pIC50 (converted)) [µM] | Compound | IC50 [1] [µM] | p38a/MK2 (10 μM) Enzyme pIC50 ([2]; top dose 10 μM)
– | – | Cc1cnc(-c2nc(C(C)(C)O)cs2)cc1-n1c(C)cc(OCc2ncc(F)cc2F)c(Cl)c1=O (atropisomer, axis not shown) [Example 2, 3-chloro-4-[(3,5-difluoropyridin-2-yl)methoxy]-2′-[4-(2-hydroxypropan-2-yl)-1,3-thiazol-2-yl]-5′,6-dimethyl-[1,4′-bipyridin]-2-one] | 3.98 | 7.5
0.02 | – | Cc1cnc(-c2ccnc(C3(O)CC3)n2)cc1-n1c(C)cc(OCc2ncc(F)cc2F)c(Cl)c1=O (atropisomer, axis not shown) [Example 3, 3-chloro-4-[(3,5-difluoropyridin-2-yl)methoxy]-2′-[2-(1-hydroxycyclopropyl)pyrimidin-4-yl]-5′,6-dimethyl-[1,4′-bipyridin]-2-one] | 5.01 | –
– | – | Cc1cnc(-c2ccnc(C(C)(C)CO)n2)cc1-n1c(C)cc(OCc2ncc(F)cc2F)c(Cl)c1=O (atropisomer, axis not shown) [Example 4, 3-chloro-4-[(3,5-difluoropyridin-2-yl)methoxy]-2′-[2-(1-hydroxy-2-methylpropan-2-yl)pyrimidin-4-yl]-5′,6-dimethyl-[1,4′-bipyridin]-2-one] | 7.94 | 7.8
– | – | Cc1cnc(-c2ccnc(C(C)(C)C(F)F)n2)cc1-n1c(C)cc(OCc2ncc(F)cc2F)c(Cl)c1=O (atropisomer, axis not shown) [Example 5, 3-chloro-2′-[2-(1,1-difluoro-2-methylpropan-2-yl)pyrimidin-4-yl]-4-[(3,5-difluoropyridin-2-yl)methoxy]-5′,6-dimethyl-[1,4′-bipyridin]-2-one] | 3.16 | 7.8
0.501 | – | COc1cnc(-c2ccnc(C(C)(C)O)n2)cc1-n1c(C)cc(OCc2ncc(F)cc2F)c(Cl)c1=O (atropisomer, axis not shown) [Example 7, 3-chloro-4-[(3,5-difluoropyridin-2-yl)methoxy]-2′-[2-(2-hydroxypropan-2-yl)pyrimidin-4-yl]-5′-methoxy-6-methyl-[1,4′-bipyridin]-2-one] | 63.1 | –
– | – | Cc1cnc(-c2nc(C(C)(C)O)cs2)cc1-n1c(C)cc(OCc2ncc(F)cc2F)cc1=O (atropisomer, axis not shown) [Example 8, 4-[(3,5-difluoropyridin-2-yl)methoxy]-2′-[4-(2-hydroxypropan-2-yl)-1,3-thiazol-2-yl]-5′,6-dimethyl-[1,4′-bipyridin]-2-one] | > 316 | <5.0
– | – | Cc1cnc(-c2cc(C3CC3)nc(C(C)(C)O)n2)cc1-n1c(C)cc(OCc2ncc(F)cc2F)c(Cl)c1=O (atropisomer, axis not shown) [Example 10, 3-chloro-2′-[6-cyclopropyl-2-(2-hydroxypropan-2-yl)pyrimidin-4-yl]-4-[(3,5-difluoropyridin-2-yl)methoxy]-5′,6-dimethyl-[1,4′-bipyridin]-2-one] | 5.01 | 5.8
– | – | Cc1cnc(-c2cccc([C@](C)(O)CO)n2)cc1-n1c(C)cc(OCc2ncc(F)cc2F)c(Cl)c1=O (atropisomer, axis not shown) [Example 14, 3-chloro-4-[(3,5-difluoropyridin-2-yl)methoxy]-2′-[6-(1,2-dihydroxypropan-2-yl)pyridin-2-yl]-5′,6-dimethyl-[1,4′-bipyridin]-2-one] | 20 | 7.7
– | – | Cc1cnc(-c2ccnc(C(C)(C)O)n2)cc1-n1c(C)cc(COc2ncc(F)cc2F)c(Cl)c1=O (atropisomer, axis not shown) [Example 15, 3-chloro-4-{[(3,5-difluoropyridin-2-yl)oxy]methyl}-2′-[2-(2-hydroxypropan-2-yl)pyrimidin-4-yl]-5′,6-dimethyl-[1,4′-bipyridin]-2-one] | 158 | 5.4
– | – | Cc1cnc(-c2cccc([C@H](O)CO)n2)cc1-n1c(C)cc(OCc2ncc(F)cc2F)c(Cl)c1=O (atropisomer, axis not shown) [Example 16, 3-chloro-4-[(3,5-difluoropyridin-2-yl)methoxy]-2′-[6-(1,2-dihydroxyethyl)pyridin-2-yl]-5′,6-dimethyl-[1,4′-bipyridin]-2-one] | 15.8 | 7.4
– | 0.002 | Cc1cnc(-c2ccnc(C(C)(C)O)c2F)cc1-n1c(C)cc(OCc2ncc(F)cc2F)c(Cl)c1=O (atropisomer, axis not shown) [Example 56A, 3-chloro-4-[(3,5-difluoropyridin-2-yl)methoxy]-1-[3′-fluoro-2′-(2-hydroxypropan-2-yl)-5-methyl-[2,4′-bipyridin]-4-yl]-6-methylpyridin-2-one] | 1.58 | –
– | – | Cc1cnc(-n2nc(C(C)(C)O)cc2C)cc1-n1c(C)cc(OCc2ncc(F)cc2F)c(Cl)c1=O (single isomer, unassigned) [Example 19A, rel-3-chloro-4-((3,5-difluoropyridin-2-yl)methoxy)-2′-(3-(2-hydroxypropan-2-yl)-5-methyl-1H-pyrazol-1-yl)-5′,6-dimethyl-2H-[1,4′-bipyridin]-2-one] | 5.01 | –
– | – | Cc1cnc(-n2nc(C(C)(C)O)cc2C)cc1-n1c(C)cc(OCc2ncc(F)cc2F)c(Cl)c1=O (single isomer, unassigned) [Example 19B, rel-3-chloro-4-((3,5-difluoropyridin-2-yl)methoxy)-2′-(3-(2-hydroxypropan-2-yl)-5-methyl-1H-pyrazol-1-yl)-5′,6-dimethyl-2H-[1,4′-bipyridin]-2-one] | > 316 | –
– | – | Cc1cnc(-n2nc(C(C)(C)O)cc2C2CC2)cc1-n1c(C)cc(OCc2ncc(F)cc2F)c(Cl)c1=O (single isomer, unassigned) [Example 20A, rel-3-chloro-2′-[5-cyclopropyl-3-(2-hydroxypropan-2-yl)pyrazol-1-yl]-4-[(3,5-difluoropyridin-2-yl)methoxy]-5′,6-dimethyl-[1,4′-bipyridin]-2-one] | 5.01 | –
– | – | Cc1cnc(-n2nc(C(C)(C)O)cc2C2CC2)cc1-n1c(C)cc(OCc2ncc(F)cc2F)c(Cl)c1=O (single isomer, unassigned) [Example 20B, rel-3-chloro-2′-[5-cyclopropyl-3-(2-hydroxypropan-2-yl)pyrazol-1-yl]-4-[(3,5-difluoropyridin-2-yl)methoxy]-5′,6-dimethyl-[1,4′-bipyridin]-2-one] | > 316 | –
– | – | Cc1cnnc(COc2cc(C)n(-c3cc(-c4ccnc(C(C)(C)O)n4)ncc3C)c(=O)c2Cl)c1 (single isomer, unassigned) [Example 28B, rel-3-chloro-2′-[2-(2-hydroxypropan-2-yl)pyrimidin-4-yl]-5′,6-dimethyl-4-[(5-methylpyridazin-3-yl)methoxy]-[1,4′-bipyridin]-2-one] | > 316 | –
– | – | Cc1nn(-c2ccnc(C(C)(C)O)n2)cc1-n1c(C)cc(OCc2ncc(F)cc2F)c(Cl)c1=O [Example 30, 3-chloro-4-[(3,5-difluoropyridin-2-yl)methoxy]-1-{1-[2-(2-hydroxypropan-2-yl)pyrimidin-4-yl]-3-methylpyrazol-4-yl}-6-methylpyridin-2-one] | 25.1 | –
